Reference: patent publication US20120178738A1, “DIBENZO [B,F] [1,4]OXAZAPINE COMPOUNDS” (ARYX THERAPEUTICS, INC., priority 2007, published 2012)

Key:
5-HT2A receptor = biological target: T1, 5-HT2A receptor (Rattus norvegicus, UniProt P14842); test: cell-based; details: read-out: 5HT2A (pKb) (converted)
T1 construct: Eight strips of tissue (0.5 cm long) were cut. and were mounted in 10 ml organ baths; tissue Charles River Laboratories; host or cells: rat aorta strips, endothelium removed
In short: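 Agonist EC50 and antagonist pKB or pA2 values come from curves fitted by Parker–Waud and from EC50 concentration-ratios with versus without antagonist. Tissue: rat aorta strips, endothelium removed, 37° C Krebs pH 7.4 with 95% O2/5% CO2, 2 g tension; response as % of 5-HT maximum.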

[1] = biological target: T2, human D2s dopamine receptors (Homo sapiens, UniProt P14416); test: hD2S receptor radioligand binding ([3H]spiperone); details: pKi reported on a scale of 1 through 5
T2 construct: expressed in transfected cells; host or cells: Chinese hamster ovary cells (membranes)
In short: (§1)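 Equilibrium competition against a fixed radioligand level, using membranes or tissues expressing the receptor and a concentration series of unlabelled compound. Binding was quantified from filtration-separated, nonspecific-corrected concentration-response relationships.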

[2] = biological target: T3, human D2L dopamine receptors (Homo sapiens, UniProt P14416); test: hD2L receptor radioligand binding ([3H]spiperone); details: pKi reported on a scale of 1 through 5; read-out: D2L (pKi) (converted)
T3 construct: expressed in transfected cells; host or cells: insect Sf9 cells (membranes)
Experimental: (§2) Consistent with standard competition radioligand binding assays, the methodology was based on displacement of radioligand from tissues (or cell lines) bearing the receptor of interest (Cheng, Y. and Prusoff, W. H. (1973). Biochem. Pharmacol. 22, 3099-3108). The measurements were based on the binding of a single concentration of radiolabeled ligand in the presence of various concentrations of unlabeled ligand.
(§3) Tissues (or cellular plasma membrane fractions) were incubated in the presence of radioligand at equilibrium and in the presence of a range of concentrations of the test compounds (which were non-radiolabeled), and the displaced radioligand was separated from the membranes by filtration. Nonspecific binding was assessed by measuring displacement of the radioligand in the presence of a compound known to block binding of the radioligand to the receptor. Finally, the concentration-response relationship for radioligand displacement (corrected for non-specific binding) was used to assess binding of the test compound to the receptor.

human 5HT1A receptors = biological target: T4, human 5HT1A receptors (Homo sapiens, UniProt P08908); test: h5-HT1A receptor radioligand binding ([3H]8OH-DPAT); details: pKi reported on a scale of 1 through 5
T4 construct: expressed in transfected cells; host or cells: Chinese hamster ovary cells (membranes)
T4 sequence (P08908 1-422): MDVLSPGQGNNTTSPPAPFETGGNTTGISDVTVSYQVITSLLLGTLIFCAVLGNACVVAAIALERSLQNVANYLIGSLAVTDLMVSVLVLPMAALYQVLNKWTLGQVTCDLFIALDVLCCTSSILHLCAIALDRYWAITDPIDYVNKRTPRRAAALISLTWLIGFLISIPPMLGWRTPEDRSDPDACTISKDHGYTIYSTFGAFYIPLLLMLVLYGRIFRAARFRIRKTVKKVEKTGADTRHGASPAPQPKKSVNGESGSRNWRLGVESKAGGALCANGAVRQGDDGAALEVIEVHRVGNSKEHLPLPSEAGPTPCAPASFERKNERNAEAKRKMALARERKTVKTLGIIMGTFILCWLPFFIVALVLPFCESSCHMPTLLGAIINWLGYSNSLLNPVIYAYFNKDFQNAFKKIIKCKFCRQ
In short: as §1

human 5HT2C receptors = biological target: T5, human 5HT2C receptors (Homo sapiens, UniProt P28335); test: h5-HT2C receptor radioligand binding ([3H]Mesulergine); details: pKi reported on a scale of 1 through 5
T5 construct: expressed in transfected cells; host or cells: human embryo kidney cells (membranes)
T5 sequence (P28335 33-458): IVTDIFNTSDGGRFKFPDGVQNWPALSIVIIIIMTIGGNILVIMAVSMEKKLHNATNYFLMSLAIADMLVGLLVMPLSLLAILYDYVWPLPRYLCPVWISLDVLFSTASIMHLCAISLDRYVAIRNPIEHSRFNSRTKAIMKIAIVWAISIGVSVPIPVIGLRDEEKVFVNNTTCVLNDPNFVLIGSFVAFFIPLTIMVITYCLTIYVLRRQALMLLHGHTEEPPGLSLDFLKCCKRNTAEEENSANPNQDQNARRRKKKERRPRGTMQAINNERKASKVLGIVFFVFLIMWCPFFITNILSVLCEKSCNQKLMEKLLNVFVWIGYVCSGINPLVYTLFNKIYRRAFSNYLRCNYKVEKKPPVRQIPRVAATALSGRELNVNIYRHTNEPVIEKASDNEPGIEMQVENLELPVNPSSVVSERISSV
In short: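 Test compound affinity was derived from concentration-dependent displacement of fixed [3H]mesulergine at equilibrium, after subtracting nonspecific binding measured with a reference blocker. Bound and free radioligand were separated by filtration of tissue or plasma-membrane preparations.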

human M3 receptors = biological target: T6, human M3 receptors (Homo sapiens, UniProt P20309); test: hM3 receptor radioligand binding ([3H]NMS); details: pKi reported on a scale of 1 through 5; read-out: M3 (pKi) (converted)
T6 construct: expressed in transfected cells; host or cells: Chinese hamster ovary cells (membranes)
Experimental: as §2, §3

human H1 receptors = biological target: T7, human H1 receptors (Homo sapiens, UniProt P35367); test: hH1 receptor radioligand binding ([3H]Pyrilamine); details: pKi reported on a scale of 1 through 5
T7 construct: expressed in transfected cells; host or cells: Chinese hamster ovary cells (membranes)
In short: as §1

human 5HT7 receptors = biological target: T8, human 5HT7 receptors (Homo sapiens, UniProt P34969); test: h5-HT7 receptor radioligand binding ([3H]5-CT); details: pKi reported on a scale of 1 through 5; read-out: 5HT7 (pKi) (converted)
T8 construct: expressed in transfected cells; host or cells: Chinese hamster ovary cells (membranes)
Experimental: as §2, §3

human M1 receptors = biological target: T9, human M1 receptors (Homo sapiens, UniProt P11229); test: hM1 receptor radioligand binding ([3H]NMS); details: pKi reported on a scale of 1 through 5
T9 construct: expressed in transfected cells; host or cells: Chinese hamster ovary cells (membranes)
T9 sequence (P11229 1-460): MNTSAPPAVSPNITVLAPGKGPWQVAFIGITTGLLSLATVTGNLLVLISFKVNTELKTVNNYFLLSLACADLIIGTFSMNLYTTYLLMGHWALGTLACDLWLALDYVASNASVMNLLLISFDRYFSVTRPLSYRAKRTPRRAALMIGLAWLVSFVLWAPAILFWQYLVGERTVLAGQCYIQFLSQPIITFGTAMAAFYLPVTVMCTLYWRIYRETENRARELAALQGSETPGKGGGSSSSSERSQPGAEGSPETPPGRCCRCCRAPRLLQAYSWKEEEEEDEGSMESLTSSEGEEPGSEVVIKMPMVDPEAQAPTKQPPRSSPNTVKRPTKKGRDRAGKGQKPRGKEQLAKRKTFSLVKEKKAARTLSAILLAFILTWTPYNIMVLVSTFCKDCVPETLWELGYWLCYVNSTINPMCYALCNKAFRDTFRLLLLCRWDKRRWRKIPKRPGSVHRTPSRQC
In short: as §1

T1 sequence (P14842 whole entry): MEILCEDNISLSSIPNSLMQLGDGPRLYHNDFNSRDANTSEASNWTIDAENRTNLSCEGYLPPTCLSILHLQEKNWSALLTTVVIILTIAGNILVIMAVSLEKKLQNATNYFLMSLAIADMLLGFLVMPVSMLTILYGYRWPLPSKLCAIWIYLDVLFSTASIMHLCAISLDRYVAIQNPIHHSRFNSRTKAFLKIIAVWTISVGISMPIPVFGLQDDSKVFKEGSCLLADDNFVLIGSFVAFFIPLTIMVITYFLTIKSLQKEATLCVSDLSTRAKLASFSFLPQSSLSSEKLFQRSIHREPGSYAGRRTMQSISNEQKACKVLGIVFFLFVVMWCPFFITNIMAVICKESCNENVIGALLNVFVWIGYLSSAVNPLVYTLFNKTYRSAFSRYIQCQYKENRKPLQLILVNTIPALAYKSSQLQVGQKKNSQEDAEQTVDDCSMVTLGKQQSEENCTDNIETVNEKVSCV
T3 sequence (P14416 whole entry): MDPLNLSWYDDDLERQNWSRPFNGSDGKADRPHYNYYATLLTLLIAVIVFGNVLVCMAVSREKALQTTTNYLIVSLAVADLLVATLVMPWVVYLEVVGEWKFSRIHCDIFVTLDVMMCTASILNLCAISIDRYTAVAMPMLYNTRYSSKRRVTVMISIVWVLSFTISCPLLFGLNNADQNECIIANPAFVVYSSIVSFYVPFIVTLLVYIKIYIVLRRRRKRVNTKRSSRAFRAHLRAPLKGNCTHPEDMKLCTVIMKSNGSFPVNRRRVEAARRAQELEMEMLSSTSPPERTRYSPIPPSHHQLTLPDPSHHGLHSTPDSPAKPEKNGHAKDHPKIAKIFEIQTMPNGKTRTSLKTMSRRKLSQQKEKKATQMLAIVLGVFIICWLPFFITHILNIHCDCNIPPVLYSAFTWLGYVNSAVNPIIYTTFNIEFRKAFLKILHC
T2 sequence (P14416 1-414 isoform P14416-2): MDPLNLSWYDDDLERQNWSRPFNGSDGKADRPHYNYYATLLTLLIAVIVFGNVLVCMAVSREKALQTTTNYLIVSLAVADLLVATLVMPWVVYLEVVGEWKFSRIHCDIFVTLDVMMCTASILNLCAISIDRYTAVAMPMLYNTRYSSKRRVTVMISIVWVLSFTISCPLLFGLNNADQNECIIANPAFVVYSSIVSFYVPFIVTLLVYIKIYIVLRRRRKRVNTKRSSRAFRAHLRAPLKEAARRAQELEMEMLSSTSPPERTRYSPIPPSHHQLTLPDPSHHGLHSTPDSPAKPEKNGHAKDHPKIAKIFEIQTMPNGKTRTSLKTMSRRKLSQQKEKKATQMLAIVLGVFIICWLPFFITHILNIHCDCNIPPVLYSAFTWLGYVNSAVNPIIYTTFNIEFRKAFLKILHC
T7 sequence (P35367 whole entry): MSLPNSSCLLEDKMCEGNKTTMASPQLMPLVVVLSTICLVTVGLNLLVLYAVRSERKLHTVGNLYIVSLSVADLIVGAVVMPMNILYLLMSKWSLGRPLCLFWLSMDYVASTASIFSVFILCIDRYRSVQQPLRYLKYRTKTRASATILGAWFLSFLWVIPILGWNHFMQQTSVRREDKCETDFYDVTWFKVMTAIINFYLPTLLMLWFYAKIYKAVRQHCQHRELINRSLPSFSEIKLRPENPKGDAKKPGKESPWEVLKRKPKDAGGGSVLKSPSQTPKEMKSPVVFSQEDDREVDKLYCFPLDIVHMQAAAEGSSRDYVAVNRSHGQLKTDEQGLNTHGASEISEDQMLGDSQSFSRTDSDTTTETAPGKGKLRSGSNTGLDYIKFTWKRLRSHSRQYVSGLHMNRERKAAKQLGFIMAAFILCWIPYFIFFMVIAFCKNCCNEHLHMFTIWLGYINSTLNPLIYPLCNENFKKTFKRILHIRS
T6 sequence (P20309 whole entry): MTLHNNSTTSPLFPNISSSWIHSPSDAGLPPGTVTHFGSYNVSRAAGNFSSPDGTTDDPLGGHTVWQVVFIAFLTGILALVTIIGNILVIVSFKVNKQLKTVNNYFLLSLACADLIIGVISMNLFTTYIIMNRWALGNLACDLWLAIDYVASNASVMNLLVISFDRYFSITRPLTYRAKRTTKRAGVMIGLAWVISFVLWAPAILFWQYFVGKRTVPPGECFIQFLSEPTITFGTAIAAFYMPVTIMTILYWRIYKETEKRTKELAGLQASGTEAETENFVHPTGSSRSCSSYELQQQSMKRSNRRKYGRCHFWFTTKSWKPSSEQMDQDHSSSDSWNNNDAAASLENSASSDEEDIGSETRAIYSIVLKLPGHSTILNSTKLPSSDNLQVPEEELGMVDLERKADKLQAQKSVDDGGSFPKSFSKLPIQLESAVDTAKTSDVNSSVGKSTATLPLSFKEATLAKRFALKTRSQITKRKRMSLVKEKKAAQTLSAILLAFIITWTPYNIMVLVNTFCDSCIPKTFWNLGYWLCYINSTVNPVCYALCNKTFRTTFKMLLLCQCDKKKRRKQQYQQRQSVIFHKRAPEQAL
T8 sequence (P34969 whole entry): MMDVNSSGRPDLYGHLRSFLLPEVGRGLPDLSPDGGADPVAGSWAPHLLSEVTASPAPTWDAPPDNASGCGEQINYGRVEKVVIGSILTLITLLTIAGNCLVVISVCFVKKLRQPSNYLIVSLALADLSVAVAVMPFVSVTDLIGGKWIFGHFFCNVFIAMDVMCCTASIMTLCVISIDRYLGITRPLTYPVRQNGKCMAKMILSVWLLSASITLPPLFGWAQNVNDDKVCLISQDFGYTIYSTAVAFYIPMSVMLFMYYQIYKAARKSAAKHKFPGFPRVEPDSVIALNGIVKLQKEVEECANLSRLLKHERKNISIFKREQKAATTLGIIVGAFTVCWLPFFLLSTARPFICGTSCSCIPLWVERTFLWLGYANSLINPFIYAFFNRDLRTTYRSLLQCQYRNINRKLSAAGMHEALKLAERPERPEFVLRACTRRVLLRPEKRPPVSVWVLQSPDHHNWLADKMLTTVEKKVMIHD

Compound | Kb (5-HT2A receptor) | Ki [1] | Ki [2] | Ki (human 5HT1A receptors) | Ki (human 5HT2C receptors) | Ki (human M3 receptors) | Ki (human H1 receptors) | Ki (human 5HT7 receptors) | Ki (human M1 receptors)
COCCCNC(=O)C[C@H]1CN(C2=Nc3cc(Cl)ccc3Oc3ccccc32)CCN1 [GD, (S,E)-2-(4-(8-chlorodibenzo[b,f][1,4]oxazepin-11-yl)piperazin-2-yl)-N-(3-methoxypropyl)acetamide] | 0.01 to 0.0309 µM | 0.631 to 2.45 µM | 0.631 to 2.45 µM | 0.01 to 0.0977 µM | 0.01 to 0.0977 µM | > 10 µM | 0.01 to 0.0977 µM | 0.631 to 1.55 µM | > 10 µM
CN1CCN(C2=Nc3cc(Cl)ccc3Oc3ccccc32)C[C@@H]1CC(=O)OC1CCCC1 [DX, (S,E)-cyclopentyl 2-(4-(8-chlorodibenzo[b,f][1,4]oxazepin-11-yl)-1-methylpiperazin-2-yl)acetate] | 0.01 to 0.0309 µM | 2.51 to 9.77 µM | 2.51 to 9.77 µM | 1 to 9.77 µM | 0.1 to 0.977 µM | > 10 µM | 0.1 to 0.977 µM | > 10 µM | 5.01 to 9.77 µM
CC(C)(CO)NC(=O)C[C@H]1CN(C2=Nc3cc(Cl)ccc3Oc3ccccc32)CCN1 [EY, (S,E)-2-(4-(8-chlorodibenzo[b,f][1,4]oxazepin-11-yl)piperazin-2-yl)-N-(1-hydroxy-2-methylpropan-2-yl)acetamide] | 0.00316 to 0.00977 µM | 0.631 to 2.45 µM | 0.631 to 2.45 µM | 0.01 to 0.0977 µM | 0.01 to 0.0977 µM | > 10 µM | 0.01 to 0.0977 µM | 0.631 to 1.55 µM | > 10 µM
COC(=O)C[C@H]1CN(C2=Nc3cc(Cl)ccc3Oc3ccccc32)CCN1 [Compound N, (S,E)-methyl 2-(4-(8-chlorodibenzo[b,f][1,4]oxazepin-11-yl)piperazin-2-yl)acetate] | 0.00316 to 0.00977 µM | 0.631 to 2.45 µM | 0.631 to 2.45 µM | 0.1 to 0.977 µM | 0.01 to 0.0977 µM | > 10 µM | 0.1 to 0.977 µM | 0.631 to 1.55 µM | 5.01 to 9.77 µM
O=C(C[C@H]1CN(C2=Nc3cc(Cl)ccc3Oc3ccccc32)CCN1)NC[C@@H]1CCCO1 [FR, 2-((S)-4-((E)-8-chlorodibenzo[b,f][1,4]oxazepin-11-yl)piperazin-2-yl)-N-(((S)-tetrahydrofuran-2-yl)methyl)acetamide] | 0.00316 to 0.00977 µM | 0.158 to 0.617 µM | 0.158 to 0.617 µM | 0.01 to 0.0977 µM | 0.01 to 0.0977 µM | > 10 µM | 0.01 to 0.0977 µM | 0.631 to 1.55 µM | > 10 µM
